# According to patent US20040086904A1, “Screening assay for cotranslational translocation interfering compounds” (priority 2001, published 2004):
# What was measured:
# [1] = tested on: VEGF SP-SEAP construct; experiment: SP-SEAP assay, secretion of SEAP into the medium; assay type: cell-based; settings: transient overexpression in mammalian cells, increasing concentrations, dose dependent, compared to VCAM-1 SP-SEAP
# Procedure: (§1) Cell Culture and Transient Transfections HEK293 cells are maintained in Dulbeccos' modified Eagle's medium (DMEM, Gibco-BRL), supplemented with 10% heat-inactivated fetal calf serum (FCS, Bio-Whittaker) and 100 Units/ml each of penicillin (BC) and streptomycin (Gibco-BRL) at 37° in a 5% humidified CO2 incubator. HUVEC cells are cultured in endothelial cell basal medium (EBM, Clonetics Corp.) supplemented with 10% FCS, 5×10^−4 M dibutyryl cAMP (Sigma), 1 μg/ml hydrocortisone (Sigma) and 10 ng/ml human EGF (Boehringer) at 37° in a 5% humidified CO2 incubator. VCAM-1 production is stimulated by incubation with 100U/ml TNF-α for ca. 8 hours. For transient transfection, HEK293 cells are seeded into 6-well or 24-well cell culture dishes at a density of 6×10^5 cells/well or 1.5×10^5 cells/well, respectively, the day prior to transfection and grown to 50-70% confluency. Cells are transfected with 2 μg or 1 μg of plasmid DNA, respectively, using the SuperFect reagent (Qiagen) according to the supplier's recommendations. Cells are incubated either without or with addition of a candidate compound, respectively, at concentrations indicated for ca. 24 to 48 hours. For proteasome inhibition experiments Lactacystin (Calbiochem) is added at a final concentration of 5 μM alone or together with a candidate compound 5 hours post-transfection, respectively.
# (§2) Human placental SEAP levels in cell supernatants are determined using either a fluorescence-based assay or an assay that measures light absorbance at 405 nm accompanying hydrolysis of pNPP according to the method described (Berger et al., 1988). Briefly, a 500 μl aliquot of medium is removed from the culture dish, clarified for 1 min at 14,000×g and heated for 5 minutes at 65°. An aliquot of medium (10 μl-100 μl) is adjusted to 1x SEAP buffer (1.0 M diethanolamine, pH 9.8, 0.5 mM MgCl2, 10 mM L-homoarginine) in a final volume of 200 μl in a 96-well flat bottom culture dish (Nunc) and prewarmed to 37° for 10 min. 20 μl of 120 mM pNPP in 1x SEAP buffer prewarmed to 37° is added and the change in absorbance at 37° is plotted. Heating step and inclusion of L-homoarginine in the assay buffer inhibit any endogenous phophatase activity. For determination of SEAP levels by a fluorescence-based assay the Atto Phos AP Fluorescent Substrate Sysem (Promega) is used according to the manufacturer's instructions.
# (§3) To further validate the novel assay system claimed in the present invention we generated SP-SEAP fusion constructs similarily to the method as described in example 1, but using the SP of other protein targets playing critical roles in various disease processes and tested their functionality by transient overexpression in mammalian cells in the absence or presence of increasing concentrations of compound CP as described (FIG. 7). […]
# [2] = tested on: IL4 SP-SEAP fusion construct; experiment: SP-SEAP assay, secretion of SEAP into the medium; assay type: cell-based; settings: transient overexpression in mammalian cells, increasing concentrations
# Procedure: as §1, §2, §3
# [3] = biological target: T1, VCAM-1 (Homo sapiens, UniProt P19320); experiment: Transient expression of VCAM-1 in HEK293 cells, Western blot / immunoblot; assay type: cell-based; design: expressed in transfected cells; host or cells: HEK293
# T1 sequence (P19320 25-739): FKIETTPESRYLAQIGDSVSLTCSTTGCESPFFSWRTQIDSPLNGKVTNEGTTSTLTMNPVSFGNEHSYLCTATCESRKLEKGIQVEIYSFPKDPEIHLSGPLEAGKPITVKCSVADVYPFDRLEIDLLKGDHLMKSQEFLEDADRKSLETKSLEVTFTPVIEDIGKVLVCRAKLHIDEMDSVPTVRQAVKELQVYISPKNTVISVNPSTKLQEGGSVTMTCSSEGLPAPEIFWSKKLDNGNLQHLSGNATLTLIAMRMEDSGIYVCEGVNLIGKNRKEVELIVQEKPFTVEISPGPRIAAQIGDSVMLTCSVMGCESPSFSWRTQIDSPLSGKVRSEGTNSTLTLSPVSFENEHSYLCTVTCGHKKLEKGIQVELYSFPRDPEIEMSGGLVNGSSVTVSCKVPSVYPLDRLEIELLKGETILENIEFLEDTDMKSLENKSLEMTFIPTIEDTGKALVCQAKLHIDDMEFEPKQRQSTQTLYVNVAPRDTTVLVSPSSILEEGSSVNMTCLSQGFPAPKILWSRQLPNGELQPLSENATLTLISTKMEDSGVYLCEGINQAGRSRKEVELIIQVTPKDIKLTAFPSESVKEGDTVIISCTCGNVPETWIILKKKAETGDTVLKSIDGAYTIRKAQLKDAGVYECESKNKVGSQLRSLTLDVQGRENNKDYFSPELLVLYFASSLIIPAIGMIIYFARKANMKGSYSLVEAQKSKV
# Procedure: The E-Selectin and ICAM-1 expression vectors pCDM8-E-selectin and pCDM8-ICAM-1 allowing transient expression in mammalian cells and cell-free translation are obtained from R&D Systems. VCAM-1 cDNA is obtained by reverse transcription of total RNA from TNF-α stimulated primary human umbilical vein endothelial cells (HUVEC) as follows. After extraction of total RNA with Trizol (GibcoBRL) according to the suppliers recommendations, reverse transcription (RT) PCR on approximately 3 μg total HUVEC RNA is performed using the Advantage High Fidelity PCR kit (CLONTECH) under standard conditions with N- and C-terminal VCAM-1-specific sense and antisense oligonucleotide primers, respectively. Primers are tailed, introducing a Kpnl restriction site 5′ of the Kozak sequence and a Xhol site 3′ of the stop codon. Placental SEAP is amplified accordingly by PCR using plasmid pBC 12/PLAP489 (Berger et al., 1988) as a template and similar tailed SEAP-specific sense and antisense oligonuclotide primers. The SEAP and VCAM-1 cDNAs are isolated and cloned into the pCR2.1 vector (TA cloning kit, Invitrogen). […] Approximately equal molar quantities of each PCR product A and B are phosphorylated and ligated. […]
# Protein expression in cells is analyzed by Western blot and subsequent immunoblot analysis. […]
# [4] = tested on: VCAMSP-SEAP construct; experiment: SP-SEAP assay, secretion of SEAP into the medium; assay type: cell-based; settings: transiently transfected cells, increasing concentrations
# Procedure: as §1, with “For proteasome inhibition experiments Lactacystin (Calbiochem) is added at a final concentration of 5 μM alone or together with a candidate compound 5 hours post-transfection, respectively.” left out
# (§4) Human placental SEAP levels in cell supernatants are determined using either a fluorescence-based assay or an assay that measures light absorbance at 405 nm accompanying hydrolysis of pNPP according to the method described (Berger et al., 1988). […] 20 μl of 120 mM pNPP in 1x SEAP buffer prewarmed to 37° is added and the change in absorbance at 37° is plotted. […] For determination of SEAP levels by a fluorescence-based assay the Atto Phos AP Fluorescent Substrate Sysem (Promega) is used according to the manufacturer's instructions.
# (§5) For the establishment and as a first proof of principle of an assay (system) according to the present invention, SP-reporter gene fusion constructs are generated using the SP of compound sensitive and insensitive proteins, respectively, and the mature sequence of placental SEAP as the reporter gene (see FIG. 5). […] Finally, secretion of the reporter SEAP protein into the medium is determined. […]
# [5] = tested on: VCAMSP(15+4)-SEAP construct; experiment: SP-SEAP assay, secretion of SEAP into the medium; assay type: cell-based; settings: transiently transfected cells, increasing concentrations, dose-dependent
# Procedure: as §1, with “For proteasome inhibition experiments Lactacystin (Calbiochem) is added at a final concentration of 5 μM alone or together with a candidate compound 5 hours post-transfection, respectively.” left out
# as §4, §5
# [6] = tested on: E-SelectinSP-SEAP fusion protein; experiment: SP-SEAP assay, secretion of SEAP into the medium; assay type: cell-based; settings: transiently transfected cells, increasing concentrations
# Procedure: as §1, with “For proteasome inhibition experiments Lactacystin (Calbiochem) is added at a final concentration of 5 μM alone or together with a candidate compound 5 hours post-transfection, respectively.” left out
# as §4, §5
# [7] = biological target: T2, E-Selectin (Homo sapiens, UniProt P16581); experiment: Cell-free translation/translocation assay, E-Selectin; assay type: biochemical; settings: reticulocyte lysate with dog pancreatic microsomes, at the concentrations tested
# T2 construct: Full length cDNAs of the adhesion molecules VCAM-1, ICAM-1 and E-Selectin are transcribed and translated; host or cells: cell-free: coupled TNT reticulocyte lysate (Promega) with dog pancreatic microsomes
# T2 sequence (P16581 22-610): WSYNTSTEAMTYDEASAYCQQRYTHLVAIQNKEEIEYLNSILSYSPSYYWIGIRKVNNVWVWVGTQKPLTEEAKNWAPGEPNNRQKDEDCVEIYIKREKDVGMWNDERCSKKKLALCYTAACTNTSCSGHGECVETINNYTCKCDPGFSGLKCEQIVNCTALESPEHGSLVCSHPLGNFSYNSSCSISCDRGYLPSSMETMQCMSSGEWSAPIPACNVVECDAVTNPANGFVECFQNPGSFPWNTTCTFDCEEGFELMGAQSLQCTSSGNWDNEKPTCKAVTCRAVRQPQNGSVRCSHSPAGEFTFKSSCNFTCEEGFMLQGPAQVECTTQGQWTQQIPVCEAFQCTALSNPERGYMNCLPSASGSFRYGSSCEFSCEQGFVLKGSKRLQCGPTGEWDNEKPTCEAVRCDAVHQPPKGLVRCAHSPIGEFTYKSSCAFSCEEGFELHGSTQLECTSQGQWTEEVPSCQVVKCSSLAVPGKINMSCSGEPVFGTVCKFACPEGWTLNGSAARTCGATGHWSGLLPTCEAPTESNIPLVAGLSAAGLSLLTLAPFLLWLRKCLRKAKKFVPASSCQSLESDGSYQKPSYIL
# Source text: (§6) Proteins are radioactively labelled and visualised by autoradlography.
# [8] = biological target: T3, ICAM-1 (Homo sapiens, UniProt P05362); experiment: Cell-free translation/translocation assay, ICAM-1; assay type: biochemical; settings: reticulocyte lysate with dog pancreatic microsomes
# T3 construct: Full length cDNAs of the adhesion molecules VCAM-1, ICAM-1 and E-Selectin are transcribed and translated; host or cells: cell-free: coupled TNT reticulocyte lysate (Promega) with dog pancreatic microsomes
# Source text: as §6
# T3 sequence (P05362 28-532): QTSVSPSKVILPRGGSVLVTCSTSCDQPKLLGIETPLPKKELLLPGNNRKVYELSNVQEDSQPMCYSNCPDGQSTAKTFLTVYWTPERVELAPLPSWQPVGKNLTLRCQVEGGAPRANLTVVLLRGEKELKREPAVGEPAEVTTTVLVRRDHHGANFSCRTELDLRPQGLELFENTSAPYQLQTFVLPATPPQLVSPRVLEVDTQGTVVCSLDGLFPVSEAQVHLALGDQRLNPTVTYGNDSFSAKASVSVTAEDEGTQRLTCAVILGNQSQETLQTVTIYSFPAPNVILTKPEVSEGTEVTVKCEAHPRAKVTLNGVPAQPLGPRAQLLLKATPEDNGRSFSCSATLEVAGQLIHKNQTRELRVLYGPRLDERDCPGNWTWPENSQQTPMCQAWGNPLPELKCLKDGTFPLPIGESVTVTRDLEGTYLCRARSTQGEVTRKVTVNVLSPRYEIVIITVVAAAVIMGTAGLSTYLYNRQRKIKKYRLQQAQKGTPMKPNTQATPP
smiles,measurement,setting,value
CCCCC(C)CC1NC(=O)C(Cc2cn(OC)c3ccccc23)N(C)C(=O)C(CC(C)C)NC(=O)C(CC(C)C)N(C)C(=O)C(CC(C)CCCC)NC(=O)C(CCC(=O)OCCC)OC(=O)C(C)N(C)C1=O (stereo not drawn) [CP],sensitivity of SEAP secretion to the compound,[1],sensitive
same,sensitivity of SEAP secretion to the compound,[2],insensitive
same,VCAM-1 protein in transfected cells co-treated with lactacystin,"[3]; cells transiently transfected with VCAM-1 cDNA, co-treatment with lactacystin 5 μM, band identified as full length, non-glycosylated VCAM-1",accumulation of a polypeptide moiety of lower molecular weight
same,IC50,"[3]; transiently transfected HEK293 cells, 48 hours post-transfection, Western blot quantified against β-actin, read-out: concentration inhibiting 50% of VCAM-1 glycoprotein synthesis",< 5 nM
same,sensitivity of SEAP secretion to the compound,[4],slight sensitivity
same,sensitivity of SEAP secretion to the compound,[5],full sensitivity
same,sensitivity of SEAP secretion to the compound,[6],compound-insensitive
same,translocation of E-Selectin,[7],resistant
same,"concentration needed to inhibit translocation of ICAM-1, relative to VCAM-1",[8],20 to 30 times
